According to US5554359A, “Pigmentation enhancer and method” (priority 1994, dated 1996):

What was measured:
[1] = system: tyrosinase activity in human foreskin organ cultures; assay: Tyrosinase activity in human foreskin organ cultures (tyrosine hydroxylase assay); assay type: cell-based; conditions: Table 2; 0.1 mM; 72 h; control 3.15 ± 0.1; triplicate ± s.d.
Protocol: At the time of surgical removal, human foreskins were placed on sterile gauze saturated with sterile IMDM medium (Iscove's modified Dulbecco's medium purchased from Irvine Scientific of Santa Ana, Calif.) for transportation from the Hospital nursery to the laboratory. The tissues were rinsed in sterile IMDM medium containing 500 U/ml penicillin and 500 μg/ml of streptomycin for 5 minutes. Under sterile conditions, an intradermal injection of medium was performed from the dermal side prior to dissection of the mucous membrane and lower dermis by scissors to make the thickness of skins equal. The foreskins were then cut into approximately 3 mm×3 mm squares and either frozen at -75° C. or placed in organ culture as described hereafter.
The organ culture medium was prepared from IMDM with glutamine supplemented with 20% horse serum, 5% fetal bovine serum, 100 U/ml penicillin, 100 μg/ml streptomycin and 3 mg/ml sodium bicarbonate. The serums were obtained from Hyclone Lab. Inc. of Logan Utah. Culture units were prepared by placing sterilized filters (AP20 025 00, Millipore) over sterilized support screens ([…] Swinnex filter support screens, Millipore) in the wells of 6-well tissue culture plates (Falcon 3046) with medium added to the wells such that the skin support screens floated and the filter absorbed the medium from beneath. The tissue samples were placed, epidermis up, on top of the saturated filters and incubated at 37° C. in a 5% CO2 humidified atmosphere. The medium was changed everyday. Harvested cultures were frozen at -75° C.
Tyrosinase activity in human skin organ cultures was determined by measuring the tyrosine hydroxylase activity of the enzyme. The assay measures the production of ^3 H2 O during the conversion of [^3 H]tyrosine to L-DOPA. Weighed skin preparations were incubated in 0.3 ml of a reaction mixture containing 0.01 mM of L-tyrosine, 5-6 uCi/ml of [^3 H]tyrosine and 0.1 mM L-DOPA in 0.1M of pH 6.8 phosphate buffer for 4 hours at 37° C. To terminate the reaction, 1 ml of phosphate buffer was added, the tubes vortexed, and 0.4 ml aliquots removed in triplicate and mixed with an equal volume of Norit SG activated charcoal (10% w/v, in 0.1N HCl). Following centrifugation at 2000×g for 10 min, the supernatants (0.5 ml) were placed in scintillation vials, scintillation fluid added, and vials counted in a TM Analytic 6895 scintillation counter equipped with a DPM processor.
Human foreskins were treated with the compounds shown in Table 1, placed in culture, and incubated for 72 hours. The skins were then assayed for tyrosinase activity with the tyrosine hydroxylase assay method as described herein.
The medium and compounds were changed daily. Tyrosinase activity was determined by measuring the tyrosine hydroxylase activity of the enzyme.
Human foreskin organ cultures were treated with the compounds listed in Table 3 for 3 days and tyrosinase activity determined as described herein. Theophylline was used at 1 mM.

[2] = system: melanin in human melanocytes; assay: Melanin content in human melanocytes; assay type: cell-based; conditions: 48-hour exposure; IBMX
Protocol: (§1) The mouse melanoma cell lines used to study the effects of lysosomotropic agents herein were the Cloudman S91 cell line (ATCC no. CCL 53.1) and two subclones of this line developed in our laboratory, the amelanotic line, AM-7, and a melanotic line, MEL-11A. All melanoma cell lines were grown in Ham's F-10 nutrient medium supplemented with 10% horse serum, penicillin (100 units/ml), and streptomycin (100 μg/ml). The normal human melanocyte cell strains used in this study were derived from foreskins of either neonares or from boys 2-6 years old. Human melanocyte cultures were grown in Ham's F-10 nutrient medium supplemented with 10% horse serum, 5% fetal bovine serum (FBS), 32 nM TPA (12-O-tetradecanoylphorbol 13-acetate), 10^-4 M IBMX(3-isobutyl-1-methylxanthine), penicillin (100 units/ml), and streptomycin (100 μg/ml).
The amount of melanin in melanoma cells or in melanocytes was determined by incubating cell pellets in 2 ml of 1-N NaOH for 48 hours at 37° C. and then measuring the solubilized melanin at 400 nm.
Dose/response parameters for ammonium chloride action were determined. […] Since tyrosinase is the rate-limiting enzyme for melanin synthesis, the stimulation of this enzyme by ammonium chloride should lead to increased melanin content of stimulated cells. […] Ammonium chloride increased tyrosinase activity in melanocytes from white-skinned individuals twenty-fold within 24 hours and by this time melanin contents had increased two-fold. Two other lysosomotropic agents, monensin and nigericin, were tested for their effects on tyrosinase activity. […] Thus, lysosomotropic agents have the ability to stimulate tyrosinase activity and melanin production in human melanocytes derived from white-skinned individuals, and to reduce melanin production in melanocytes from black-skinned people.

[3] = system: melanin in human melanocytes; conditions: three days; melanocyte cultures; cited from earlier work
[4] = system: tyrosinase activity in human melanocytes; assay: Tyrosinase responses in human melanocytes (Table 6); assay type: cell-based
Protocol: as §1
(§2) To determine tyrosinase activity in situ in either melanoma cells or in human melanocyte cultures, the tyrosine hydroxylase activity of the enzyme was determined. Cells were seeded into 60-mm culture dishes at 2×10^5 cells/dish and allowed to attach overnight. The medium was then exchanged for the appropriate growth medium supplemented with 1 μCi/ml of [^3 H]tyrosine (L-ring-3,5-^3 H]-tyrosine, DuPont New England Nuclear), and with hormones, where indicated. Cells were grown in labeled medium for 24 hours, and at this time, the medium was removed and assayed for the presence of ^3 H2 O using the charcoal absorption method of Pomerantz. Tyrosinase activity in cell homogenates was determined by sonicating cell pellets in 0.1-M sodium phosphate buffer (pH 6.8) and then incubating 50-μl aliquots in 0.5 ml of a reaction mixture containing 0.1-mM tyrosine, 2 μCi/ml of [^3 H]tyrosine, 0.1-mM L-DOPA (dihydroxyphenylalanine), and 0.1 mM PMSF (phenylmethylsulfonyl fluoride) at 37° C. for 2 hours. Reactions were terminated by the addition of 1 ml of charcoal (10% w/v in 0.1-N HCl). Samples were centrifuged, and the supernatants removed for determination of the amount of ^3 H2 O produced.
Hormone responsiveness in human melanocyte cell cultures were examined (for these studies, melanocytes derived from skin type III were used). […] Tyrosinase activity and melanin content typically double with a 48-hour exposure to IBMX. […] The steroid hormones, for the most part, caused little, if any, change in tyrosinase activity at the concentrations used.

[5] = system: tyrosinase abundance in mouse melanoma cells; conditions: other studies; cited from earlier work
[6] = system: tyrosinase activity in mouse melanoma cells; conditions: Cloudman S91; cited from earlier work
[7] = system: tyrosinase activity in mouse melanoma cells; assay: Tyrosinase responses in mouse melanoma cells (Table 6); assay type: cell-based
Protocol: as §1
as §2, with “produced. […]” for “produced.”

tyrosinase mRNA = conditions: three days; melanocyte cultures; cited from earlier work
[8] = system: tyrosinase activity in mouse melanoma cells; conditions: e.g., 10^-5 M; footnote b of Table 6; cited from earlier work

CC(C)Cn1c(=O)n(C)c(=O)c2[nH]cnc21 [IBMX, 3-isobutyl-1-methylxanthine]
Tyrosinase Activity [1]: 7.03 ± 0.49 pmoles ^3 H2 O/hour/mg skin
melanin content [2]: double
increase in melanin production [3]: fourfold increase
Tyrosinase Activity ([4]; 48-hour exposure, IBMX): double
activity at 100 µM ([4]; Homo sapiens, Melanocyte, Table 6, 10^-7 M except IBMX 10^-4 M, theophylline 1 mM, ammonium chloride 10 mM, A23187 not given, melanocytes from skin type III, read-out: Effect on Tyrosinase Activity, Human Melanocyte): 150 to 200%
tyrosinase activity correlates with enzyme abundance [5]: correlates with an increase in enzyme abundance
mimicking of the MSH response [6]: mimicked
response of mouse melanoma cells ([7]; compounds that raise intracellular cAMP levels or MSH): respond vigorously
change in amount of tyrosinase mRNA (tyrosinase mRNA): not accompanied by any increase

CC1=C(/C=C/C(C)=C/C=C/C(C)=C/C(=O)O)C(C)(C)CCC1 [Retinoic Acid, all-trans]
Effect on Tyrosinase Activity, Human Melanocyte ([4]; Table 6, 10^-7 M except IBMX 10^-4 M, theophylline 1 mM, ammonium chloride 10 mM, A23187 not given, melanocytes from skin type III): Inhibited
effect on tyrosine activity at higher concentrations [8]: stimulate tyrosine activity
Effect on Tyrosinase Activity, Mouse Melanoma ([7]; Table 6, 10^-7 M except IBMX 10^-4 M, theophylline 1 mM, ammonium chloride 10 mM, A23187 not given): Inhibited
